{"source": "patent US20210107993A1", "about": "“CARTYRIN COMPOSITIONS AND METHODS FOR USE” (Poseida Therapeutics, Inc., priority 2018, published 2021)", "molecules": {"B1": {"name": "CD2z CSR: chimeric stimulatory receptor: wild type CD2 and CD3z intracellular stimulation domain, SEQ ID NO: 17912 (protein)", "chain": "MSFPCKFVASFLLIFNVSSKGAVSKEITNALETWGALGQDINLDIPSFQMSDDIDDIKWEKTSDKKKIAQFRKEKETFKEKDTYKLFKNGTLKIKHLKTDDQDIYKVSIYDTKGKNVLEKIFDLKIQERVSKPKISWTCINTTLTCEVMNGTDPELNLYQDGKHLKLSQRVITHKWTTSLSAKFKCTAGNKVSKESSVEPVSCPEKGLDIYLIIGICGGGSLLMVFVALLVFYITKRKKQRSRRNDEELETRAHRVATEERGRKPHQIPASTPQNPATSQHPPPPPGHRSQAPSHRPPPPGHRVQHQPQKRPPAPSGTQVHQQKGPPLPRPRVQPKPPHGAAENSLSPSSNRVKFSRSADAPAYKQGQNQLYNELNLGRREEYDVLDKRRGRDPEMGGKPRRKNPQEGLYNELQKDKMAEAYSEIGMKGERRRGKGHDGLYQGLSTATKDTYDALHMQALPPR"}}, "key": {"Pan T cells": {"system": "Pan T cells", "experiment": "Expansion of BCMA CAR-T cells with CSR over 19 day culture", "assay_type": "cell-based, human", "conditions": "CSR transient (mRNA) or stable (piggyBac)", "description": "FIG. 36 is a graph showing that delivery of CSR enhances the expansion of CAR-T cells. CSRs were delivered to CAR-T cells either transiently by mRNA or stably by piggyBac™. Pan T cells isolated from the blood of a normal donor were genetically modified using the piggyBac™ DNA modification system and the standard Poseida process. Cells were co-electroporated in a single reaction with mRNA encoding the Super piggyBac transposase enzyme (SPB), a transposon encoding a BCMA CAR and selection gene, along with an additional mRNA encoding a CSR (either CD28z or CD2z; resulting in transient expression) or a CD19 mRNA control, or, with a transposon encoding a BCMA CAR, selection gene and a CSR (either CD28z or CD2z; resulting in stable expression). The cells were subsequently stimulated with agonist mAbs anti-CD2, anti-CD3 and anti-CD28, and were later selected for genetic modification over the course of a 19 day culture period. At the end of the initial culture period all T cells expressed the CAR, indicating successful selection for genetically-modified cells (data not shown). Bars represent total live CAR-T cells in well and numbers indicate fold-enhancement of expansion above CAR-T cells produced in the absence of a CSR or a CD19 mRNA control."}, "iC9 safety switch": {"target": "T1, iC9 safety switch (Homo sapiens, UniProt P62942, F37V)", "T1 construct": "expressed in transfected cells", "T1 sequence (P62942 with tags, fused parts or gaps F37V)": "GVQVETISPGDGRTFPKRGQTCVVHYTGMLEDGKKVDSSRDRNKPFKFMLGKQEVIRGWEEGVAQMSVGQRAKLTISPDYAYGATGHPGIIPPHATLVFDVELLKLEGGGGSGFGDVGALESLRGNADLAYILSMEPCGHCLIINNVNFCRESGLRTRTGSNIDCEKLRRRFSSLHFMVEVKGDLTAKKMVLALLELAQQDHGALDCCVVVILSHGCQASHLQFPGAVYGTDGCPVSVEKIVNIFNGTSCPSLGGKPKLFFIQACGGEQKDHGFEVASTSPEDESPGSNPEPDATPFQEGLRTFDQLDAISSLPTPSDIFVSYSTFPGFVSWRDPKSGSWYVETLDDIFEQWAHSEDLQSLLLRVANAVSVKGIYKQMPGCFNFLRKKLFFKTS", "experiment": "iC9 safety switch test: viability by flow cytometry using 7-AAD after AP1903", "assay_type": "cell-based", "description": "Human pan T-cells were nucleofected using an Amaxa 4D nucleofector with one of four piggyBac transposons. Modified T cells receiving the “mock” condition were nucleofected with an empty piggyBac transposon. Modified T cells received either a piggyBac transposon containing a therapeutic agent alone (a sequence encoding a CARTyrin) or a piggyBac transposon containing an integrated iC9 sequence and a therapeutic agent (a sequence encoding a CARTyrin).\nTo test the iC9 safety switch, each of the four modified T cells were incubated for 24 hours with 0, 0.1 nM, 1 nM, 10 nM, 100 nM or 1000 nM AP1903 (an induction agent for […]). Viability was assessed by flow cytometry using 7-aminoactinomycin D (7-AAD), a fluorescent intercalator, as a marker for cells undergoing apoptosis.\nCell viability was assessed at day 12 (see FIG. 9). […] Moreover, cell viability was assessed at day 19 (see FIG. 10). […]\nA quantification of the aggregated results was performed and is provided in FIG. 11, showing the significant impact of the iC9 safety switch on the percent cell viability as a function of the concentration of the induction agent (AP1903) of the iC9 switch for each modified cell type at either day 12 (FIG. 9 and left graph) or day 19 (FIG. 10 and right graph)."}, "cells [1]": {"system": "cells", "experiment": "AP1903 amount for effective signaling of cells in vitro", "assay_type": "cell-based", "conditions": "1600 Da MW", "protocol": "The fixed dose of AP1903 for injection used, for example, may be 0.4 mg/kg intravenously infused over 2 hours. The amount of AP1903 needed in vitro for effective signaling of cells is 10-100 nM (1600 Da MW). This equates to 16-160 μg/L or 0.016-1.6 μg/kg (1.6-160 μg/kg). Doses up to 1 mg/kg were well-tolerated in the Phase I study of AP1903 described above. Therefore, 0.4 mg/kg may be a safe and effective dose of AP1903 for this Phase I study in combination with the therapeutic cells."}, "cells [2]": {"system": "cells", "conditions": "cited from earlier work"}, "[3]": {"conditions": "cited from earlier work"}}}
{"molecule": "CD28z CSR: chimeric stimulatory receptor: wild type CD28 and CD3z intracellular stimulation domain, SEQ ID NO: 17910", "values": [{"measurement": "expansion of CAR-T cells", "setting": "Pan T cells", "value": "a greater degree of expansion of the CAR-T cells"}]}
{"molecule": "iC9 safety switch: ligand binding region (FKBP12 F36V), a linker, and a truncated caspase 9 polypeptide (SEQ ID NO: 18032)", "values": [{"measurement": "apoptosis induced by presence of the iC9 safety switch", "setting": "iC9 safety switch; with induction agent AP1903, by day 12 post-nucleofection", "value": "induces apoptosis in a significant majority of cells"}]}
{"molecule": "CC[C@H](C(=O)N1CCCC[C@H]1C(=O)O[C@H](CCc1ccc(OC)c(OC)c1)c1cccc(OCC(=O)NCCNC(=O)COc2cccc([C@@H](CCc3ccc(OC)c(OC)c3)OC(=O)[C@@H]3CCCCN3C(=O)[C@@H](CC)c3cc(OC)c(OC)c(OC)c3)c2)c1)c1cc(OC)c(OC)c(OC)c1", "note": "(relative stereo) [AP1903, 2-Piperidinecarboxylic acid, 1-[(2S)-1-oxo-2-(3,4,5-trimethoxyphenyl)butyl]-, 1,2-ethanediylbis[imino(2-oxo-2,1-ethanediyl)oxy-3,1-phenylene[(1R)-3-(3,4-dimethoxyphenyl)propylidene]]ester, [2S-[1(R*),2R*[S*[S*[1(R*),2R*]]]]]-(9C1)]", "values": [{"measurement": "amount needed in vitro for effective signaling of cells, converted", "setting": "cells [1]", "value": "16 to 160", "unit": "µg/L"}, {"measurement": "concentration at which AP1903 induces apoptosis (lowest concentration of the study)", "setting": "iC9 safety switch; T cells containing iC9 construct, 24 hours incubation", "value": "≤ 0.1", "unit": "nM"}, {"measurement": "amount needed in vitro for effective signaling of cells", "setting": "cells [2]", "value": "10 to 100", "unit": "nM"}, {"measurement": "safety and tolerability", "setting": "[3]; 0.01, 0.05, 0.1, 0.5 and 1.0 mg/kg IV over 2 hours", "value": "safe and well tolerated at all dose levels"}, {"measurement": "mean Cmax", "setting": "[3]; 0.01-1.0 mg/kg infused IV over 2 hours, healthy volunteers", "value": "10 to 1275", "unit": "ng/mL"}, {"measurement": "plasma levels versus dose", "setting": "[3]; 0.01-1.0 mg/kg", "value": "directly proportional to dose"}, {"measurement": "well-tolerated dose", "setting": "[3]; Phase I study", "value": "up to 1 mg/kg"}, {"measurement": "plasma level as % of maximal concentration, 0.5 hours post-dose", "setting": "[3]; after initial infusion period", "value": "approximately 18%"}, {"measurement": "plasma level as % of maximal concentration, 2 hours post-dose", "setting": "[3]; after initial infusion period", "value": "~7", "unit": "%"}, {"measurement": "plasma level as % of maximal concentration, 10 hours post-dose", "setting": "[3]; after initial infusion period", "value": "~1", "unit": "%"}, {"measurement": "pharmacokinetic profile", "setting": "[3]; human, in vivo", "value": "favorable pharmacokinetic profile"}]}
{"molecule": "B1", "values": [{"measurement": "expansion of CAR-T cells", "setting": "Pan T cells", "value": "a greater degree of expansion of the CAR-T cells"}]}
